These results are taken from PubChem BioAssay (NCI).

Some test systems named below: CAKI-1 renal; HL-60(TB) leukemia; KM12 colon; LOX IMVI melanoma; RXF 393 renal; SF-295 CNS; SK-OV-3 ovarian; SNB-19 CNS.
Holding throughout (assay): DTP human tumour cell line panel, 48 h

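Method: 48-hour compound exposure of cells in 96-well plates, five concentrations, linear interpolation of endpoints. GI50 = concentration required for 50% inhibition of growth. TGI: concentration producing complete growth inhibition.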 Bounds are passed on as bounds.

Consider `CC(=O)[CH-]C(=O)c1ccccc1.CC(=O)[CH-]C(=O)c1ccccc1.CC1(C)C2CCC1(C)C([O-])C2.CC1(C)C2CCC1(C)C([O-])C2.[Ti+4]`, for which the GI50 in the experiment with CAKI-1 renal was 51.4 µM; with HL-60(TB) leukemia it was 23.8 µM; in the experiment on KM12 colon, 34.8 µM; in the experiment with LOX IMVI melanoma, 25.1 µM; in the experiment on RXF 393 renal, 17.6 µM; in the experiment on SF-295 CNS, 38.9 µM. Also, the GI50 is 20.8 µM in the experiment with SK-OV-3 ovarian and 25.8 µM in the experiment with SNB-19 CNS. The TGI was more than 100 µM in the experiment with CAKI-1 renal; more than 100 µM with HL-60(TB) leukemia; more than 100 µM in the experiment with KM12 colon; more than 100 µM in the experiment with LOX IMVI melanoma; 36.1 µM with RXF 393 renal; more than 100 µM in the experiment on SF-295 CNS. For the same compound, the TGI in the experiment on SK-OV-3 ovarian worked out at 74.1 µM; with SNB-19 CNS, 97.7 µM.

Turning to `O=c1cc2ccccc2nn1Cc1cccc(Cl)c1`, the TGI in the experiment with CAKI-1 renal, with KM12 colon, in the experiment on LOX IMVI melanoma, in the experiment with SF-295 CNS, in the experiment on SK-OV-3 ovarian and in the experiment with SNB-19 CNS was more than 100 µM each time.

For the compound `CCC1(c2c(F)c(F)c(N)c(F)c2F)CCC(=O)NC1=O` (stereo not drawn), the TGI in the experiment on CAKI-1 renal, with HL-60(TB) leukemia, in the experiment with KM12 colon, in the experiment on LOX IMVI melanoma, in the experiment with SF-295 CNS and in the experiment with SK-OV-3 ovarian was more than 100 µM throughout. Also, the TGI with SNB-19 CNS is more than 100 µM.

Turning to `N#CC(C(=O)/C(=N/N)C(C#N)c1ccccc1)c1ccccc1` (stereo not drawn), the TGI in the experiment on CAKI-1 renal, in the experiment with HL-60(TB) leukemia, with KM12 colon, with LOX IMVI melanoma, in the experiment on RXF 393 renal and with SF-295 CNS was more than 100 µM in each case. The TGI in the experiment on SK-OV-3 ovarian and in the experiment on SNB-19 CNS was more than 100 µM in each case.

As for `Cc1ccccc1C(=O)c1ccccc1O`, the total growth inhibition concentration (TGI) in the experiment on CAKI-1 renal, in the experiment on HL-60(TB) leukemia, with KM12 colon, in the experiment on LOX IMVI melanoma, with RXF 393 renal and in the experiment with SF-295 CNS was more than 100 µM throughout. Moreover, the TGI in the experiment with SK-OV-3 ovarian and in the experiment with SNB-19 CNS was more than 100 µM each time.

For `N/C(=C\c1ccc(OCc2ccccc2)c(OCc2ccccc2)c1[N+](=O)[O-])C(=O)O`, the total growth inhibition concentration (TGI) in the experiment on HL-60(TB) leukemia, in the experiment with KM12 colon, with LOX IMVI melanoma, with RXF 393 renal, in the experiment with SF-295 CNS and in the experiment on SK-OV-3 ovarian was more than 100 µM in each case. Also, the TGI in the experiment on SNB-19 CNS is more than 100 µM.

Turning to `Clc1cc(Cc2cc(Cl)c(Cl)c3c2OCOC3)c2c(c1Cl)COCO2`, the TGI is 49.7 µM in the experiment on CAKI-1 renal; more than 100 µM with HL-60(TB) leukemia; more than 100 µM in the experiment with KM12 colon; more than 100 µM in the experiment on LOX IMVI melanoma; 70.3 µM in the experiment on RXF 393 renal; 78.8 µM in the experiment with SF-295 CNS. Further, the TGI in the experiment on SK-OV-3 ovarian was 64.4 µM; with SNB-19 CNS, more than 100 µM.

On to `CCC/C(=N/NC(=O)C(N)=O)C(CC)C(=O)CCC(=O)N(Cc1ccccc1)Cc1ccccc1` (stereo not drawn), for which the TGI in the experiment with CAKI-1 renal, with HL-60(TB) leukemia, in the experiment on KM12 colon, with LOX IMVI melanoma, in the experiment with RXF 393 renal and with SF-295 CNS was more than 100 µM each time. For the same compound, the TGI in the experiment with SK-OV-3 ovarian and with SNB-19 CNS was more than 100 µM in each case.

As to `CC(=O)[CH-]C(=O)c1ccccc1.CC(=O)[CH-]C(=O)c1ccccc1.[Eu+3].[OH-].[OH3+]`, the GI50 in the experiment on CAKI-1 renal, in the experiment on HL-60(TB) leukemia, in the experiment with LOX IMVI melanoma, with RXF 393 renal, with SF-295 CNS and with SK-OV-3 ovarian was more than 100 µM in each case. The GI50 in the experiment on SNB-19 CNS was more than 100 µM. Besides, the TGI with CAKI-1 renal, with HL-60(TB) leukemia, in the experiment on LOX IMVI melanoma, with RXF 393 renal, with SF-295 CNS and in the experiment with SK-OV-3 ovarian was more than 100 µM each time. This compound also showed a TGI with SNB-19 CNS of more than 100 µM.

As to `N#C/C(=C/c1ccc[nH]1)P(=O)(O)O`, the TGI in the experiment with CAKI-1 renal, in the experiment with HL-60(TB) leukemia, with KM12 colon, with LOX IMVI melanoma, with RXF 393 renal and in the experiment on SF-295 CNS was more than 100 µM throughout. Also, the TGI in the experiment with SK-OV-3 ovarian and with SNB-19 CNS was more than 100 µM in each case.

Regarding `COC(=O)/C([Se]c1c(C)cc(C)cc1C)=C(\[Se]c1c(C)cc(C)cc1C)C(=O)OC`, the TGI in the experiment with CAKI-1 renal, in the experiment with HL-60(TB) leukemia, in the experiment on KM12 colon, in the experiment on LOX IMVI melanoma, in the experiment on RXF 393 renal and in the experiment on SF-295 CNS was more than 100 µM each time. Also, the TGI in the experiment with SK-OV-3 ovarian and in the experiment with SNB-19 CNS was more than 100 µM each time.

`Oc1ccccc1C=NCc1ccco1`: the TGI in the experiment with HL-60(TB) leukemia, in the experiment with KM12 colon, in the experiment on LOX IMVI melanoma, in the experiment with RXF 393 renal, in the experiment with SF-295 CNS and with SK-OV-3 ovarian was more than 100 µM each time. This compound also had a TGI in the experiment on SNB-19 CNS of more than 100 µM.

As for `CC(C)c1ccc(C2C3=C(N=C4SCC(=O)N42)C(=O)c2ccccc23)cc1` (stereo not drawn), the TGI in the experiment on CAKI-1 renal, in the experiment on HL-60(TB) leukemia, with KM12 colon, in the experiment with SF-295 CNS, with SK-OV-3 ovarian and in the experiment with SNB-19 CNS was more than 100 µM in each case.

`C[S+](C)CCOC(=O)C(=[N+]=[N-])c1ccc([N+](=O)[O-])cc1`: the concentration for total growth inhibition (TGI) in the experiment with CAKI-1 renal, in the experiment on HL-60(TB) leukemia, in the experiment with KM12 colon, in the experiment with RXF 393 renal, in the experiment on SF-295 CNS and with SK-OV-3 ovarian was more than 100 µM in each case. The same compound showed a TGI in the experiment with SNB-19 CNS of more than 100 µM.

One may read the GI50 as the concentration that inhibits growth by half. As a reminder, the TGI is the concentration giving total growth inhibition.
